From the METLIN SMRT retention time set (Domingo-Almenara et al. 2019)

Assay: gradient 5% acetonitrile 3 min, to 50% in 2 min, to 85% in 15 min, held 3 min, 100 µL/min
Details: column: Zorbax Extend-C18 2.1 x 50 mm; eluents: water / acetonitrile, 0.1% formic acid
Outline: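 Pure standards were run in mixtures of ~100 molecules by HPLC coupled to a quadrupole time-of-flight mass spectrometer. The column was a Zorbax Extend-C18 (2.1 × 50 mm, 1.8 μm) at 100 μL/min, with water and acetonitrile each containing 0.1% formic acid, in positive and negative ionization mode. Dead and dwell volumes were 40 μL and 900 μL. Retention time was taken from computationally picked adduct peaks, each manually inspected, with data collected over 3 months.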
Work on `Cc1nn(-c2cc(N3CCCCC3)ncn2)c(C)c1CCC(=O)N1CCN(c2ccccn2)CC1` yielded an RP-LC retention time of 639 s.
For `CSc1ccc(-c2nc3cc(C)ccn3c2Nc2ccc3c(c2)OCCO3)cc1`, the RP-LC retention time was 719 s.
For `COCCNC(=O)C(C)Sc1ccc(=O)n(-c2ccc(C)c(Cl)c2)n1` (centres undefined), the RP-LC retention time was 731 s.
Work on `Cc1ccc(-c2ncccc2CNS(=O)(=O)c2ccc(Br)s2)cc1` yielded an RP-LC retention time of 786 s.
In the case of `CCOc1cc(C(=O)NC2CCN(c3cc(-c4cccs4)[nH]n3)C2)cc(OCC)c1OCC` (centres undefined), the RP-LC retention time is reported as 839 s.
`Cc1cc(C)n(CCC(=O)N2C[C@H]3C[C@H](C2)[C@H]2CCCC(=O)N2C3)n1` showed an RP-LC retention time of 600 s.
Work on `CCN(CC)S(=O)(=O)c1ccc2c(c1)CC(C(=O)N1CCOCC1)N2C(C)=O` (centres undefined) yielded an RP-LC retention time of 663 s.
In the case of `Cc1cccc(NC(=O)N2CCCC(C)(C(=O)NCc3ccc(F)cc3)C2)c1` (centres undefined), the RP-LC retention time is reported as 924 s.
`CC(C)c1cc(C(=O)Nc2ccccc2)nc2ccnn12` gave an RP-LC retention time of 1080 s.
`Cc1ccc2c(c1)N(S(C)(=O)=O)CCC(C(=O)Nc1ccccc1)O2` (centres undefined) showed an RP-LC retention time of 892 s.
`Cc1ccn2cc(-c3ccc(NS(=O)(=O)c4ccc(Cl)cc4)cc3)nc2n1` gave an RP-LC retention time of 679 s.
With `O=C(Nc1cc(F)ccc1F)c1ccc(=O)n(Cc2cccc(C(F)(F)F)c2)c1` the RP-LC retention time was 861 s.
`CCCN1CCN(C(=O)C2CCN(S(=O)(=O)c3ccc4c(c3)sc(=O)n4C(C)C)CC2)CC1` showed an RP-LC retention time of 665 s.
In the case of `Cc1cc(C(=O)Nc2ccc(Cl)cc2)nc2cc(-c3ccco3)nn12`, the RP-LC retention time is reported as 1170 s.
Compound `Cc1nc(-c2csc(S(=O)(=O)N3CCC(C(=O)N4c5ccccc5CC4C)CC3)c2)no1` (centres undefined) has an RP-LC retention time of 1050 s.
In the case of `CC(=O)c1ccc(NC(=O)c2cc(C(F)(F)F)n(C)n2)cc1`, the RP-LC retention time is reported as 871 s.
Compound `O=C(c1csc(N2CCN(c3ccc(Cl)cc3)CC2)n1)N1CCCCC1` has an RP-LC retention time of 1130 s.
Work on `O=c1c2nnc(SCc3ccc(F)cc3)n2ccn1-c1ccc(F)cc1` yielded an RP-LC retention time of 812 s.
For `CCc1ccc(CN2C(=O)c3ccccc3C2C(=O)NCCCOC)cc1` (centres undefined), the RP-LC retention time was 819 s.
Work on `CN1c2cc(F)ccc2C(=O)NC12CCN(C(=O)c1ccccc1F)CC2` yielded an RP-LC retention time of 751 s.
`O=C(c1ccc2ncccc2c1)N1CCN(c2cc(-c3cccs3)[nH]n2)CC1` gave an RP-LC retention time of 641 s.
`CCC1=NS(=O)(=O)c2cccnc2N1c1ccc(Br)cc1` gave an RP-LC retention time of 903 s.
For `Cc1ccc(CNC(=O)Cn2nc3cc(-c4ccccc4)nc(C)n3c2=O)cc1`, the RP-LC retention time was 930 s.
`O=C(Cn1c(=O)c2cccn2c2ccc(F)cc21)NCCCN1CCOCC1` showed an RP-LC retention time of 602 s.
Compound `Cc1ccc(CNC(=O)CN2CCN(Cc3cccc(Cl)c3)C2=O)o1` has an RP-LC retention time of 810 s.
In the case of `COc1ccc(NC(=O)N2CCc3cn(C)c4cccc(c34)C2)cc1OC`, the RP-LC retention time is reported as 794 s.
With `Cc1nn(-c2ccc(C(=O)N3CCCCC3)cc2)c2c1C(=O)CCC2` the RP-LC retention time was 721 s.
`CCCNC(=O)CN1CCN(c2cc(C(=O)O)c3cc(NC(=O)C(C)C)ccc3n2)CC1` showed an RP-LC retention time of 568 s.
Work on `Cc1ccc2c(c1)NC(=O)c1cc(NC(=O)c3ccno3)ccc1O2` yielded an RP-LC retention time of 719 s.
Work on `O=C(CN1C(=O)COc2ccc(S(=O)(=O)N3CCOCC3)cc21)NCCc1c[nH]c2ccccc12` yielded an RP-LC retention time of 777 s.
In the case of `CNC(=O)NC1CCN(c2nc3cccnc3n(Cc3ccc(C)cc3)c2=O)CC1`, the RP-LC retention time is reported as 860 s.
`Cc1ccc2c(c1)N(Cc1nc(-c3ccc4c(c3)OCO4)no1)C(=O)CO2` showed an RP-LC retention time of 1020 s.
Work on `Cc1ccn2cc(C(=O)N3CCN(c4ccccc4)CC3)nc2c1` yielded an RP-LC retention time of 634 s.
With `O=C(Nc1cnc(N2CCCCCC2)nc1)c1ccsc1` the RP-LC retention time was 822 s.
Work on `CCN1C(=O)c2ccccc2Oc2ccc(C(=O)NC3CCCC3)cc21` yielded an RP-LC retention time of 891 s.
For `CCCCN(C)c1ncc(C(=O)NCc2ccccc2)c(N)n1`, the RP-LC retention time was 690 s.
Compound `CCOc1ccc(NS(=O)(=O)c2ccc3c(c2)CCCC(=O)N3)cc1` has an RP-LC retention time of 709 s.
Work on `Cc1nc(OCC(=O)NCc2ccc(Cl)cc2)c2c(C)c(C)oc2n1` yielded an RP-LC retention time of 941 s.
`Cc1ccc(CNC(=O)c2cn(C)c3c(c(C)nn3-c3ccc(F)cc3)c2=O)o1` showed an RP-LC retention time of 803 s.
`CCN1CCCn2cc(S(=O)(=O)Nc3ccc(Cl)cc3F)cc2C1=O` showed an RP-LC retention time of 763 s.
`COCCn1cc(CCNC(=O)Nc2ccccc2Br)c2cccnc21` gave an RP-LC retention time of 763 s.
Work on `Cc1ccc(C)c(NC(=O)C2CCCN(S(=O)(=O)c3cc(-c4noc(C)n4)cs3)C2)c1` (centres undefined) yielded an RP-LC retention time of 1060 s.
`CCC(Oc1ccc(=O)n(-c2ccc(F)cc2)n1)C(=O)NCCc1ccco1` (centres undefined) showed an RP-LC retention time of 759 s.
Work on `Cc1ccc2c(C)nc(Nc3ncc4c(n3)CCCC4=O)nc2c1` yielded an RP-LC retention time of 598 s.
For `Cc1ccc(S(=O)(=O)NC(=O)Nc2nccs2)cc1`, the RP-LC retention time was 751 s.
For `CC1CN2C=NC(N3CCN(C(=O)Nc4ccccc4C(F)(F)F)CC3)=CC2=N1` (centres undefined), the RP-LC retention time was 616 s.
Work on `O=C1NCCCCCCN(Cc2ccncc2)[C@@H]2CN(C3CCC3)CC[C@H]12` yielded an RP-LC retention time of 559 s.
With `Cc1c(S(=O)(=O)N2CCC(C)CC2)c(C)n(C)c1-c1nnc(C2CCC2)o1` the RP-LC retention time was 1100 s.
In the case of `COc1cc(OC)cc(C(=O)N2CCC3(CC2)N=C(c2ccccc2)NO3)c1`, the RP-LC retention time is reported as 810 s.
For `COc1ccccc1N1CCN(c2ncc(S(=O)(=O)c3ccc(C(C)C)cc3)c(N)n2)CC1`, the RP-LC retention time was 1120 s.
For `Cc1noc(-c2ccc(OC3CN(S(=O)(=O)c4cccc5nsnc45)C3)cc2)n1`, the RP-LC retention time was 932 s.
`CCOc1ccc(NC(=O)N2CCC(n3cnc4cccnc43)CC2)cc1` showed an RP-LC retention time of 642 s.
`Cc1cc(C(=O)N2CC(C(=O)NCCc3ccc(F)cc3)C2)no1` showed an RP-LC retention time of 680 s.
`O=C(c1cc(-c2cccnc2)n[nH]1)N1CCN(C(=O)C2CCCC2)CC1` showed an RP-LC retention time of 594 s.
`COc1ccc(N2CCN(C(=O)c3cc(NC(C)=O)cc4nc(C)ccc34)CC2)cc1` showed an RP-LC retention time of 603 s.
In the case of `CC1(C)CC(=O)N(CC(=O)Nc2c(F)c(F)c(F)c(F)c2F)c2ccccc2S1(=O)=O`, the RP-LC retention time is reported as 860 s.
With `O=C(C1CC(=O)N(c2n[nH]c3cccc(F)c23)C1)N1CCN(c2ccccn2)CC1` (centres undefined) the RP-LC retention time was 582 s.
With `Cc1ccc(CNc2ccc3nnc(C4CCC4)n3n2)o1` the RP-LC retention time was 883 s.
In the case of `Cc1ccc(NC(=O)C2CCN(S(=O)(=O)c3cc(C(=O)N4CCCC4)n(C)c3)CC2)nc1`, the RP-LC retention time is reported as 647 s.
`Cn1nccc1-c1cccc(-c2noc(-c3cccs3)n2)c1` gave an RP-LC retention time of 1030 s.
For `COc1cc2c(cc1OC)C1C(C(=O)NCCCN3CCCCCC3)c3ccccc3C(=O)N1CC2` (centres undefined), the RP-LC retention time was 617 s.
`COc1cccc(CNC(=O)C2(C)Oc3cccnc3N(C)C2=O)c1` (centres undefined) gave an RP-LC retention time of 748 s.
In the case of `CCOc1ccc(CNC(=O)C2CCN(C(=O)C3Sc4ccccc4NC3=O)CC2)cc1OC` (centres undefined), the RP-LC retention time is reported as 712 s.
`CCN1C(=O)c2cccnc2Sc2cc(CNC(=O)c3cccnc3SC)ccc21` gave an RP-LC retention time of 721 s.
`Cn1c(=O)c2c(nc([N+](=O)[O-])n2Cc2ccc(F)cc2)n(C)c1=O` gave an RP-LC retention time of 795 s.
Compound `COCC(=O)N1CCCc2ccc(NC(=O)CSc3ccc(F)cc3)cc21` has an RP-LC retention time of 732 s.
For `O=C(Nc1ccccc1Cl)N(CCc1cccs1)C1CC1`, the RP-LC retention time was 1120 s.
`O=C(Cc1ccc(Br)cc1)N1CCCN(c2cc(-c3ccc(F)cc3)[nH]n2)CC1` showed an RP-LC retention time of 773 s.
With `Cc1nn(-c2nc3ccccc3[nH]2)c2c1C(=O)CC(c1ccc(C(C)C)cc1)C2` (centres undefined) the RP-LC retention time was 1230 s.
In the case of `CC(C)C(=O)Nc1ccc2nc(N3CCN(Cc4ccccc4F)CC3)cc(C(=O)O)c2c1`, the RP-LC retention time is reported as 585 s.
`CC(C)NC(=O)c1ccc(OCC2CCCN2C(=O)c2ccc(N(C)C)cc2)cc1` (centres undefined) showed an RP-LC retention time of 799 s.
`O=S(=O)(Nc1cccc(Cl)c1)c1ccc2nncn2c1` gave an RP-LC retention time of 700 s.
`Cc1nc(-c2ccc3c(c2)CCN3C(=O)c2ccc(F)cc2)cs1` showed an RP-LC retention time of 961 s.
Work on `CCc1nccn1Cc1nc(-c2ccc(OC)c(OC)c2)no1` yielded an RP-LC retention time of 618 s.
For `Cn1ncc2c(N3CCSCC3)nc(C(=O)NCc3ccc(F)cc3)nc21`, the RP-LC retention time was 823 s.
`CS(=O)(=O)N1CCC(C(=O)Nc2ccccc2F)Oc2ccc(Cl)cc21` (centres undefined) showed an RP-LC retention time of 960 s.
Work on `CCn1nccc1C(=O)N1CCC2(CC1)C(=O)N(C)c1ccccc12` yielded an RP-LC retention time of 630 s.
`CS(=O)(=O)N(C1CCOCC1)C1CN(C(=O)NCc2ccccc2)C1` showed an RP-LC retention time of 660 s.
With `CC1=C(C(=O)Nc2ccc(C(=O)N3CCN(c4ccc(Cl)cc4)CC3)cc2)SCCO1` the RP-LC retention time was 957 s.
In the case of `Cc1ccc(-c2nc3ccc(C)cn3c2Nc2ccc3c(c2)OCO3)cc1`, the RP-LC retention time is reported as 725 s.
Compound `CCn1c(=O)c(N2CCC(NC(=O)NCCCOC)CC2)nc2ccccc21` has an RP-LC retention time of 707 s.
`O=C(Nc1ccccc1OC(F)F)c1ccc(S(=O)(=O)N2CCOCC2)cc1` showed an RP-LC retention time of 841 s.
`CCn1cc(-c2ccc(C)cc2)cc1C(=O)NCCN(C)C` showed an RP-LC retention time of 680 s.
Compound `CCN1CCN(C(=O)C(C)n2c3ccccc3c3cnn(C)c(=O)c32)CC1` (centres undefined) has an RP-LC retention time of 585 s.
For `O=C(Nc1ccc(Br)cc1F)C1CCCN(c2cc(-n3cccn3)ncn2)C1` (centres undefined), the RP-LC retention time was 967 s.
`CC(C)c1cc(=O)n(CC(=O)Nc2cccc(-c3cn4c(n3)SCC4)c2)cn1` showed an RP-LC retention time of 568 s.
In the case of `O=C(Nc1nnc(C2CCCO2)o1)c1cc2ccccc2o1` (centres undefined), the RP-LC retention time is reported as 655 s.
Compound `O=C(CN1CCN(Cc2ccccc2)C(=O)C1=O)N1CCN(c2ccccc2F)CC1` has an RP-LC retention time of 752 s.
`CCOc1ccc(C2Cn3nnc(-c4nc(-c5ccc(C(F)(F)F)cc5)no4)c3CO2)cc1` (centres undefined) showed an RP-LC retention time of 1340 s.
